Reference: ChEMBL document CHEMBL5331108, “Design and Synthesis of 4-Fluorophenyl-5-methylene-2(5H)-furanone Derivatives as Potent Quorum Sensing Inhibitors” (J Med Chem, 2023)
Converted amounts (≈) assume the structure as drawn. The source made the active and inactive calls. The calls are words filed in the database; no cut-off is given here.

Tests used:
Pseudomonas aeruginosa [1] = assay: Antibacterial activity against Pseudomonas aeruginosa 27853 assessed as inhibition of bacterial growth at 256 ug/ml measured after 25 hrs by absorbance based assay; type: functional, organism-based; conditions: dose 256.0 µg/ml
Bacillus subtilis = assay: Antibacterial activity against penicillin-susceptible Bacillus subtilis ATCC9372 assessed as inhibition of bacterial growth incubated for 20 hrs by CLSI protocol based microdilution method; type: functional
Bacillus pumilus = assay: Antibacterial activity against penicillin-susceptible Bacillus pumilus CMCC63202 assessed as inhibition of bacterial growth incubated for 20 hrs by CLSI protocol based microdilution method; type: functional
Staphylococcus aureus [2] = assay: Antibacterial activity against erthromycin-susceptible Staphylococcus aureus ATCC25923 assessed as inhibition of bacterial growth incubated for 20 hrs by CLSI protocol based microdilution method; type: functional
Staphylococcus aureus [3] = assay: Antibacterial activity against methicillin-resistant Staphylococcus aureus ATCC43300 assessed as inhibition of bacterial growth incubated for 20 hrs by CLSI protocol based microdilution method; type: functional
Pseudomonas aeruginosa [4] = assay: Antibacterial activity against penicillin-susceptible Pseudomonas aeruginosa ATCC27853 assessed as inhibition of bacterial growth incubated for 20 hrs by CLSI protocol based microdilution method; type: functional
Escherichia coli = assay: Antibacterial activity against penicillin-susceptible Escherichia coli ATCC25922 assessed as inhibition of bacterial growth incubated for 20 hrs by CLSI protocol based microdilution method; type: functional
Pseudomonas aeruginosa [5] = assay: Antibacterial activity against wild type Pseudomonas aeruginosa […] CGMCC1.12483 assessed as inhibition of bacterial growth incubated for 20 hrs by CLSI protocol based microdilution method; type: functional
[6] = Inhibition of quorum sensing system in Pseudomonas aeruginosa PAO1 assessed as inhibition of pyocyanin production at 102.4 ug/ml incubated for 18 hrs by absorbance based assay; conditions: dose 102.4 µg/ml
Pseudomonas aeruginosa [7] = assay: Antibacterial activity against Pseudomonas aeruginosa PAO1 assessed as inhibition of bacterial growth at 256 ug/ml measured after 25 hrs by absorbance based assay; type: functional, organism-based; conditions: dose 256.0 µg/ml
[8] = Inhibition of quorum sensing system in Pseudomonas aeruginosa PAO1 assessed as inhibition of protease activity at 102.4 ug/ml incubated for 24 hrs by absorbance based assay; conditions: dose 102.4 µg/ml
[9] = Inhibition of quorum sensing system in Pseudomonas aeruginosa PAO1 assessed as inhibition of rhamnolipid production at 102.4 ug/ml incubated for 24 hrs by absorbance based assay; conditions: dose 102.4 µg/ml
Pseudomonas aeruginosa [10] = assay: Inhibition of biofilm formation in Pseudomonas aeruginosa PAO1 at 32 ug/ml incubated for 20 hrs by crystal violet staining based analysis; type: functional; conditions: dose 32.0 µg/ml
[11] = Hemolytic activity in mouse red blood cells assessed as hemolysis rate at 512 ug/ml incubated for 1 hrs by microplate reader analysis relative to control; type: toxicity, cell-based, Erythrocyte; conditions: red blood cells (erythrocytes), at 512 µg/mL, read-out: Activity
Pseudomonas aeruginosa [12] = assay: Synergistic antibacterial activity against Pseudomonas aeruginosa 27853 assessed as inhibition of bacterial growth at 1 to 256 ug/ml incubated for 24 hrs in the presence of Ciprofloxacin by absorbance based microplate reader analysis; type: functional, organism-based; conditions: dose 1-256 µg/ml
Pseudomonas aeruginosa [13] = assay: Synergistic antibacterial activity against Pseudomonas aeruginosa 27853 assessed as inhibition of bacterial growth by measuring fold change in ciprofloxacin at 1 to 256 ug/ml incubated for 24 hrs by absorbance based microplate reader analysis; type: functional; conditions: dose 1-256 µg/ml
Pseudomonas aeruginosa [14] = assay: Synergistic antibacterial activity against Pseudomonas aeruginosa 27853 assessed as inhibition of bacterial growth incubated for 24 hrs in the presence of Clarithromycin by absorbance based microplate reader analysis; type: functional, organism-based; conditions: dose 1-256 µg/ml
Pseudomonas aeruginosa [15] = assay: Synergistic antibacterial activity against Pseudomonas aeruginosa PAO1 assessed as inhibition of bacterial growth at 1 to 256 ug/ml incubated for 24 hrs in the presence of ciprofloxacin by absorbance based microplate reader analysis; type: functional, organism-based; conditions: dose 1-256 µg/ml
Pseudomonas aeruginosa [16] = assay: Synergistic antibacterial activity against Pseudomonas aeruginosa 27853 assessed as inhibition of bacterial growth at 1 to 128 ug/ml incubated for 24 hrs by absorbance based microplate reader analysis; type: functional, organism-based; conditions: dose 1-128 µg/ml
Pseudomonas aeruginosa [17] = assay: Synergistic antibacterial activity against Pseudomonas aeruginosa PAO1 assessed as inhibition of bacterial growth at 1 to 256 ug/ml incubated for 24 hrs in the presence of Clarithromycin by absorbance based microplate reader analysis; type: functional, organism-based; conditions: dose 1-256 µg/ml
Pseudomonas aeruginosa [18] = assay: Inhibition of biofilm formation in Pseudomonas aeruginosa PAO1 assessed as effect on biofilm morphology at 102.4 ug/ml incubated for 24 hrs by scanning electron microscopic analysis; type: functional, organism-based; conditions: dose 102.4 µg/ml
Klebsiella pneumoniae = assay: Antibiofilm activity against Klebsiella pneumoniae ATCC13882 assessed as inhibition of biofilm formation incubated for 24 hrs by crystal violet staining based broth microdilution method; type: functional, organism-based; conditions: ATCC13882, 24 h
Enterococcus faecalis = assay: Antibiofilm activity against Enterococcus faecalis ATCC19433 assessed as inhibition of biofilm formation incubated for 24 hrs by crystal violet staining based broth microdilution method; type: functional, organism-based; conditions: ATCC19433, 24 h
Staphylococcus aureus [19] = assay: Antibiofilm activity against Staphylococcus aureus ATCC33591 assessed as inhibition of biofilm formation incubated for 24 hrs by crystal violet staining based broth microdilution method; type: functional, organism-based; conditions: ATCC33591, 24 h
Pseudomonas aeruginosa [20] = assay: Synergistic antibacterial activity against Pseudomonas aeruginosa PAO1 assessed as inhibition of bacterial growth at highest concentration incubated for 24 hrs in the presence of ciprofloxacin by absorbance based microplate reader analysis relative to control; type: functional
Pseudomonas aeruginosa [21] = assay: Antibacterial activity against Pseudomonas aeruginosa 27853 assessed as inhibition of bacterial growth at […] incubated for 24 hrs by absorbance based microplate reader analysis relative to control; type: functional; conditions: dose 3.2 µg/ml

SMILES	Activity (Pseudomonas aeruginosa [1])	MIC (Bacillus subtilis) [µg/mL]	MIC (Bacillus pumilus) [µg/mL]	MIC (Staphylococcus aureus [2]) [µg/mL]	MIC (Staphylococcus aureus [3]) [µg/mL]	MIC (Pseudomonas aeruginosa [4]) [µg/mL]	MIC (Escherichia coli) [µg/mL]	MIC (Pseudomonas aeruginosa [5]) [µg/mL]	inhibition [6]	Activity (Pseudomonas aeruginosa [7])	inhibition [8] [%]	inhibition [9]	inhibition (Pseudomonas aeruginosa [10])	hemolysis at 1 h, 512 ug/ml [11] [%]	Activity (Pseudomonas aeruginosa [12])	fold change (FC) (Pseudomonas aeruginosa [13])	Activity (Pseudomonas aeruginosa [14])	Activity (Pseudomonas aeruginosa [15])	Activity (Pseudomonas aeruginosa [17])	also measured
C=C1C(c2ccc(F)cc2)=C(CNC(=O)c2ccc(C)cc2)C(=O)N1c1ccc(C)cc1	inactive	512 (≈ 1200 µM)	512 (≈ 1200 µM)	> 512	> 512	> 512	> 512	512 (≈ 1200 µM)	Active	inactive	8.6	49.7%	inactive	> 2.5	Active	>=1.5	Dose-Dependent Effect	Active		
C=C1OC(=O)C(CNC(=O)c2ccc(Br)cc2)=C1c1ccc(F)cc1	inactive	16 (≈ 39.8 µM)	> 512	> 512	8 (≈ 19.9 µM)	> 512	> 512	> 512	34.7%	inactive	8.6	48.5%	inactive	> 2.5	Active	>=1.5	Dose-Dependent Effect	Active	Active	Activity (Pseudomonas aeruginosa [16]): Active
C=C1C(c2ccc(F)cc2)=C(CNC(=O)c2ccc(C)cc2)C(=O)N1c1ccccc1C	inactive	> 512	512 (≈ 1200 µM)	> 512	> 512	> 512	> 512	512 (≈ 1200 µM)	38.3%	inactive	8.6	45.9%	inactive	< 2.5	Active	>=1.5	Dose-Dependent Effect	Active	Active	
C=C1C(c2ccc(F)cc2)=C(CNC(=O)c2ccc(C)cc2)C(=O)N1c1cccc(C)c1	inactive	> 512	512 (≈ 1200 µM)	> 512	> 512	> 512	> 512	512 (≈ 1200 µM)	35.2%	inactive	8.6	57.1%	Active	> 2.5	Active	>=1.5	Dose-Dependent Effect	Active		
CC[C@H]1OC(=O)[C@H](C)[C@@H](O[C@H]2C[C@@](C)(OC)[C@@H](O)[C@H](C)O2)[C@H](C)[C@@H](O[C@@H]2O[C@H](C)C[C@H](N(C)C)[C@H]2O)[C@](C)(O)C[C@@H](C)CN(C)[C@H](C)[C@@H](O)[C@]1(C)O [AZITHROMYCIN]		0.25 (≈ 0.334 µM)	0.25 (≈ 0.334 µM)	0.25 (≈ 0.334 µM)	256 (≈ 342 µM)	16 (≈ 21.4 µM)	128 (≈ 171 µM)	256 (≈ 342 µM)												inhibition (Pseudomonas aeruginosa [18]): inactive
O=C1O/C(=C\c2cc(Br)c(O)c(Br)c2)C(c2ccc(O)c(Br)c2)=C1C(=O)c1ccccc1																				IC50 (Klebsiella pneumoniae): 7.5 µg/mL (≈ 12.1 µM); IC50 (Enterococcus faecalis): 3.6 µg/mL (≈ 5.8 µM); IC50 (Staphylococcus aureus [19]): 0.7 µg/mL (≈ 1.13 µM)
C=C1OC(=O)C(CNC(=O)c2ccc(OC)cc2)=C1c1ccc(F)cc1	inactive	128 (≈ 362 µM)	32 (≈ 90.6 µM)	32 (≈ 90.6 µM)	64 (≈ 181 µM)	> 512	> 512	> 512	44%	inactive	8.6	Active	Active		Active		Dose-Dependent Effect	Active	Active	inhibition (INH) (Pseudomonas aeruginosa [20]): 90.53%
CC[C@H]1OC(=O)[C@H](C)[C@@H](O[C@H]2C[C@@](C)(OC)[C@@H](O)[C@H](C)O2)[C@H](C)[C@@H](O[C@@H]2O[C@H](C)C[C@H](N(C)C)[C@H]2O)[C@](C)(OC)C[C@@H](C)C(=O)[C@H](C)[C@@H](O)[C@]1(C)O [CLARITHROMYCIN]		0.25 (≈ 0.334 µM)	0.25 (≈ 0.334 µM)	0.25 (≈ 0.334 µM)	16 (≈ 21.4 µM)	128 (≈ 171 µM)	128 (≈ 171 µM)	256 (≈ 342 µM)												inhibition at […] (Pseudomonas aeruginosa [21]): 32.7%
